Experimental data reported in patent US8975276B2, “Inhibitors of PDE10” (Bristol-Myers Squibb Company, priority 2011, dated 2015).
Where a name gives a salt, the structure may show the parent alone. Read-outs that look alike come from different tables or passages of the source.

Biological target: PDE10 (Homo sapiens (Human), UniProt Q9Y233)
Experiment: LE_PDE10A inhibition assay (scintillation proximity assay, cAMP hydrolysis)
Assay type: biochemical
Conditions: SPA, 3H-cAMP substrate at Km 25 nM
Method: LE_PDE10A Inhibition Assay:
The PDE10 inhibition assay in 384-well plates was conducted to identify substances for the inhibition of cyclic nucleotide hydrolysis by the PDE10 enzyme. […] PDE10 activity was measured using Scintillation Proximity Assay (SPA)-based methods. PDE10 catalyses the hydrolysis of the intracellular messenger adenosine […] (cAMP) to the non-cyclic adenosine 5′-monophosphate (AMP). The SPA assay was based upon the selective interaction of the tritiated product with yttrium oxide LEADseeker beads.
The assay buffer contained 25 mM HEPES pH 7.4, 2.5 mM Magnesium Chloride and 0.1% BSA. […] The reaction was terminated by adding 6 μL of 5 mg/mL of yttrium oxide LEADseeker beads. The beads were allowed to settle for 3 hours before plates were read in the LEEDSeaker for 6 minutes. The measured signal could be converted to activity relative to an […] control (100%). IC50 values were calculated by using in-house data software and IC50 values were generated by nonlinear regression analysis. (Bristol-Myers Squibb Company, Wallingford, Conn.).

Chain of PDE10 (Q9Y233 whole entry): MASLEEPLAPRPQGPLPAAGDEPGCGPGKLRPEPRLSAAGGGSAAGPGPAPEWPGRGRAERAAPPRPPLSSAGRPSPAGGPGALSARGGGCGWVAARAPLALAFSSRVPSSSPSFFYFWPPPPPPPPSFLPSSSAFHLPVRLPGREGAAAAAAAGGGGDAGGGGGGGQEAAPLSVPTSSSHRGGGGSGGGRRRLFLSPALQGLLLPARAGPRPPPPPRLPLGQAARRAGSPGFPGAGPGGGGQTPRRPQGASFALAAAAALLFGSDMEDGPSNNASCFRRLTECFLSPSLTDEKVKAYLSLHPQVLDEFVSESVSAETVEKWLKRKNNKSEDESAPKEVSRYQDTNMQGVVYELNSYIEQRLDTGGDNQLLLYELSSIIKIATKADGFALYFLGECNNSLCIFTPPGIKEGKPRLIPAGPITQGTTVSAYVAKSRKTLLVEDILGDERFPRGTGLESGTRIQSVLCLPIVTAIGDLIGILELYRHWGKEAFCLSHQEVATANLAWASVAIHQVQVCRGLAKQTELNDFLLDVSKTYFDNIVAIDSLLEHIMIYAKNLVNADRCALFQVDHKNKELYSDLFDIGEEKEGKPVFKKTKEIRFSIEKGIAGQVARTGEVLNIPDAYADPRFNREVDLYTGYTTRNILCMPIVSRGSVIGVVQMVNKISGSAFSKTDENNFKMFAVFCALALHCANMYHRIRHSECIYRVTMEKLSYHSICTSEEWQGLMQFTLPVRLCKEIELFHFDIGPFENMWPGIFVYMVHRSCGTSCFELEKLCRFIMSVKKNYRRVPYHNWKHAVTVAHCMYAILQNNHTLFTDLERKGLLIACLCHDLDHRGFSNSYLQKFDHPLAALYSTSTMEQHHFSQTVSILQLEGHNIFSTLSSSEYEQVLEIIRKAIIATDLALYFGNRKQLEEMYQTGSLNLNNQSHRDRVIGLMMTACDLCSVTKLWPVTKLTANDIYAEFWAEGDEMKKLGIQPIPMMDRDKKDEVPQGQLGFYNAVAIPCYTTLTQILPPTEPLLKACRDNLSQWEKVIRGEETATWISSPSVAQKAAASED

Compound | IC50 (read-out: PDE10 IC50) [nM] | IC50 (read-out: PDE10 IC50 (Range)) [nM]
Cc1ncc(C)n2nc(-c3ccn4cc(-c5ccccc5)nc4c3)nc12 [Example 1, 5,8-dimethyl-2-(2-phenylimidazo[1,2-a]pyridin-7-yl)-[1,2,4]triazolo[1,5-a]pyrazine] | 0.1 | –
Cc1ncc(C)n2nc(-c3ccn4cc(-c5ccccn5)nc4c3)nc12 [Example 14, 5,8-dimethyl-2-(2-(pyridin-2-yl)imidazo[1,2-a]pyridin-7-yl)-[1,2,4]triazolo[1,5-a]pyrazine] | 0.16 | –
Cc1nccn2nc(-c3ccn4cc(-c5cccc(Br)c5)nc4c3)nc12 [Example 23, 2-(2-(3-bromophenyl)imidazo[1,2-a]pyridin-7-yl)-8-methyl-[1,2,4]triazolo[1,5-a]pyrazine] | – | 1 to 100
Cc1nccn2nc(-c3ccn4cc(-c5cccc(C6CC6)c5)nc4c3)nc12 [Example 24, 2-(2-(3-cyclopropylphenyl)imidazo[1,2-a]pyridin-7-yl)-8-methyl-[1,2,4]triazolo[1,5-a]pyrazine] | – | 1 to 100
Cc1ncc(C)n2nc(-c3ccn4cc(-c5cccc(C6CC6)c5)nc4c3)nc12 [Example 26, 2-(2-(3-cyclopropylphenyl)imidazo[1,2-a]pyridin-7-yl)-5,8-dimethyl-1,2,41-triazolo[1,5-a]pyrazine] | 0.33 | –
Cc1ncc(C)n2nc(-c3ccn4cc(-c5cccc(N6CC[C@H](F)C6)c5)nc4c3)nc12 [Example 28, (S)-2-(2-(3-(3-fluoropyrrolidin-1-yl)phenyl)imidazo[1,2-a]pyridin-7-yl)-5,8-dimethyl-[1,2,4]triazolo[1,5-a]pyrazine] | 0.16 | –
Cc1nccn2nc(-c3ccn4c(C)c(-c5ccccc5)nc4c3)nc12 [Example 29, 8-methyl-2-(3-methyl-2-phenylimidazo[1,2-a]pyridin-7-yl)-[1,2,4]triazolo[1,5-a]pyrazine] | 2.4 | 1 to 100

Results, then the molecule that gave them:

IC50 (read-out: PDE10 IC50) [nM] | IC50 (read-out: PDE10 IC50 (Range)) [nM] | Compound
– | 1 to 100 | Cc1ncc(C)n2nc(-c3ccn4cc(-c5ccc(Cl)cc5)nc4c3)nc12 [Example 6, 2-(2-(4-chlorophenyl)imidazo[1,2-a]pyridin-7-yl)-5,8-dimethyl-[1,2,4]triazolo[1,5-a]pyrazine]
11 | 1 to 100 | Cc1ccc(-c2cn3ccc(-c4nc5c(C)ncc(C)n5n4)cc3n2)c(C)c1 [Example 7, 2-(2-(2,4-dimethylphenyl)imidazo[1,2-a]pyridin-7-yl)-5,8-dimethyl-[1,2,4]triazolo[1,5-a]pyrazine]
– | 1 to 100 | Cc1ncc(C)n2nc(-c3ccn4cc(-c5ccc(C#N)cc5)nc4c3)nc12 [Example 16, 4-(7-(5,8-dimethyl-[1,2,4]triazolo[1,5-a]pyrazin-2-yl)-imidazo[1,2-a]pyridin-2-yl)benzonitrile]
3.5 | 1 to 100 | Cc1ncc(C)n2nc(-c3cc4nc(-c5ccccc5)cn4cc3N3CCCC3)nc12 [Example 17, 5,8-dimethyl-2-(2-phenyl-6-(pyrrolidin-1-yl)imidazo[1,2-a]pyridin-7-yl)-[1,2,4]triazolo[1,5-a]pyrazine]
– | 1 to 100 | Cc1nccn2nc(-c3ccn4cc(-c5ccccc5)nc4c3)nc12 [Example 19, 8-methyl-2-(2-phenylimidazo[1,2-a]pyridin-7-yl)-1,2,41-triazolo[1,5-a]pyrazine, 2 HCl]
– | 1 to 100 | Cc1nccn2nc(-c3ccn4cc(-c5ccccn5)nc4c3)nc12 [Example 20, 8-methyl-2-(2-(pyridin-2-yl)imidazo[1,2-a]pyridin-7-yl)-[1,2,4]triazolo[1,5-a]pyrazine, 2 HCl]
26 | 1 to 100 | Cc1ncc(C)n2nc(-c3ccn4cc(C5CC5)nc4c3)nc12 [Example 21, 2-(2-cyclopropylimidazo[1,2-a]pyridin-7-yl)-5,8-dimethyl-[1,2,4]triazolo[1,5-a]pyrazine]
– | 1 to 100 | Cc1ncc(C)n2nc(-c3ccn4cc(-c5cnccn5)nc4c3)nc12 [Example 22, 5,8-dimethyl-2-(2-(pyrazin-2-yl)imidazo[1,2-a]pyridin-7-yl)-[1,2,4]triazolo[1,5-a]pyrazine]
